US5763245A, “Method of controlling insects” (priority 1996, dated 1998)

Legend:
boll weevil larvae [1] = assay: Boll weevil larvae bioassay (diet incorporation); type: in vivo; conditions: for lethal effects against boll weevil: incorporated at up to 200 &M in the standard diet
Method: Assays for activity against boll weevil larvae are carried out by incorporating the test sample into a agar liquid diet similar to that for southern corn rootworm [Marrone et al., 1985]. The test sample is substituted for the 20% water component. Neonate larvae are allowed to feed on the diet and mortality and growth stunting are evaluated.
Protein concentrations were determined spectrophotometrically with BCA protein reagent [Smith et al., 1985].

[2] = system: black cutworm (BCW) neonate; assay: Detached leaf assay with transgenic corn; type: in vivo, Agrotis ipsilon; conditions: corn leaf tissue, 3d
Source text: A detached leaf assay was designed to evaluate biological activity of transgenic corn expressing either CryIA(b) alone or in combination with cholesterol oxidase (CO) against Agrotis ipsilon, black cutworm (BCW). In artificial diet assays, a synergistic response was observed when CO and CryIA(b) were combined.
Treatments included transgenic corn expressing either CryIA(b) alone or in combination with CO. Plant tissue from the F1 generation of two CO events crossed to a CryIA(b) event was used in this bioassay. The CO events included collosian and flushed. The CryIA(b) event was ezra. For each of the CO events by CryIA(b) cross, the CO isopopulations provide the tissue for each treatment.
CO expression was estimated to be 15 and 14 ppm for collosian and flushed, respectively. CryIA(b) expression was not quantitated. Historically, this event has reliably and consistently expressed the CryIA(b) protein at around 10 ppm.
Tissue was collected at the v6 stage from the youngest leaf of six plants for each treatment event combination. Four leaf samples (1.5×2.0 cm leaf pieces) were taken from each plant, where each piece was placed singly in a well of a 24-well microtiter plate. One neonate larva was added to each well and sealed with a mylar lidding. The assay was incubated for 3 days at 27° C. Larval weight (mg) and mortality was recorded. […] Although larval weight was less in the CryIA(b)+CO treatment for both events as compared to CryIA(b) alone (ca. 12%), the difference between the treatment means within an event was not significant.

H. zea neonate larvae = assay: B.t. / cholesterol oxidase synergy diet assay; type: in vivo, Helicoverpa zea; set-up: surv.: unit not given here; conditions: CO 15 ppm, alone or in tandem; for Mean Larval wgt / Stunting Observed: 7-day
Method: (§1) Feeding assays were conducted for 7-10 days.

[3] = system: fall armyworn (FAW) neonate larvae; assay: B.t. / cholesterol oxidase synergy diet assay; type: in vivo; conditions: 7-day; each protein 15 ppm, alone or in tandem
Method: as §1

[4] = system: black cutworm (BCW) larvae; assay: B.t. / cholesterol oxidase synergy diet assay; type: in vivo, Agrotis ipsilon; conditions: each protein 15 ppm, alone or in tandem
[5] = system: beet armyworm (BAW) neonate larvae; assay: B.t. / cholesterol oxidase synergy diet assay; type: in vivo; conditions: each protein 15 ppm, alone or in tandem; for Mean Larval wgt / Stunting Observed: 7-day
Method: as §1

[6] = system: Tobacco budworm (TBW) neonate larvae; assay: B.t. / cholesterol oxidase synergy diet assay; type: in vivo; conditions: 7-day; for surv.: n 96
Method: as §1

boll weevil larvae [7] = assay: Homogenized cotton leaf tissue assay; type: in vivo; conditions: six days, initial 24
Method: In order to test 3-hydroxysteroid oxidase against boll weevil larvae in a host tissue diet environment, a study was conducted in which cotton leaf tissue was the only nutritional component of an agar-based diet. Two cotton leaves (each approx. 5 inches wide ) with stems were homogenized at 50% C into 170 mL of a 1.6% agar solution containing 0.13% propionic acid, 0.014% phosphoric acid, and 30 mg each of streptomycin sulfate and chlortetracycline. Before addition of the leaves, 10% KOH was used to adjust the pH of the agar solution to 6.2. The leaf "diet" was allowed to cool to 40% C. Dilutions of cholesterol oxidase and a water control were incorporated into the leaf "diet", poured into insect diet trays and allowed to cool. Boll weevil eggs were added to the diet wells. The assay was evaluated six days later. […] This illustrates that the enzyme is insecticidal in the presence of intact cotton tissue and cells.

[8] = system: midguts of boll weevil larvae; assay: Midgut morphology of larvae feeding on enzyme diets; type: in vivo
Source text: The enzymatic action in the gut is believed to be oxidation of the 3-hydroxysteroid(s) of the cell membranes in the lining of the gut. The effects of ingested 3-hydroxysteroid oxidase on the midguts of boll weevil larvae have been studied. The midguts of boll weevil larvae (neonate and second instar at initiation of assay) feeding on diets containing sublethal doses of 3-hydroxysteroid oxidase were dissected out. Representative midguts were immediately placed in fixative and analyzed microscopically for morphological changes. […] There was a good correlation of the morphological changes with the observed mortality over the 3-hydroxysteroid oxidase concentration range in the diet. Parallel midguts were dissected and homogenized and found to contain active 3-hydroxysteroid oxidase in enzymatic assays.

tobacco budworm larvae = assay: Cottonseed diet (Pharmamedia flour) test with tobacco budworm; type: in vivo; conditions: 100 ppm in cottonseed diet (Pharmamedia flour)
Method: The Southern corn rootworm diet used in the assay described above was the control. Two treatment diets were made by mixing 30 g of one of two types of cottonseed flour into 170 mL of a 1.6% agar solution at 50% C, containing 0.13% propionic acid, 0.014% phosphoric acid, and 30 mg each of streptomycin sulfate and chlortetracycline. Before mixing, 10% KOH was used to adjust the pH to 6.2. One test diet utilized raw cottonseed flour (Sigma) as the nutrient source; the other utilized Pharmamedia™ (Traders Protein), a flour made up of cottonseed embryos. The diets were incubated in a water bath at 40% C. Dilutions of the Sigma Streptomyces 3-hydroxysteroid oxidase (cholesterol oxidase) were incorporated into the diets as described above. Boll weevil larvae were allowed to feed and mortality rates were determined after six days.
In addition, tobacco budworm larvae are 68% stunted when exposed to 3-hydroxysteroid oxidase (100 ppm) in cottonseed diet (made with Pharmamedia™ flour).

[9] = system: boll weevil or lepidopteran larvae; assay: Feeding of diet incubated with enzyme and then boiled; type: in vivo; conditions: diet incubated one week with the enzyme, then boiled
Source text: While not being bound by this theory, it is believed that the 3-hydroxysteroid oxidase enzyme kills or stunts boll weevil larvae and stunts the growth of lepidopteran larvae by some action in the gut after ingestion.

[10] = CO 15 ppm, CryIA(c) 0.1 ppm, alone or in tandem
[11] = CryIA(c) 0.05 ppm, alone or with CO 15 ppm

Compound	lethal effects against boll weevil (boll weevil larvae [1])	Mean Larval wgt (H. zea neonate larvae; CryIA(b) 10 ppm) [mg]	Stunting Observed (H. zea neonate larvae; CryIA(b) 10 ppm) [%]	Obs. Mort. (H. zea neonate larvae; 7 day, CryIA(b) 10 ppm) [%]	surv. (H. zea neonate larvae; 7 day, CryIA(b) 10 ppm)	Obs. Mort. (H. zea neonate larvae; 8 day, CryIA(b) 10 ppm) [%]	surv. (H. zea neonate larvae; 8 day, CryIA(b) 10 ppm)	Mean Larval wgt [3] [mg]	Obs. Mort. [3] [%]	Stunting Observed [3] [%]	surv. [3]	Obs. Mort. ([4]; 3rd instar 6 day) [%]	surv. ([4]; 3rd instar 6 day)	Mean Larval wgt ([4]; 3rd instar, 6-day assay) [mg]	Stunting Observed ([4]; 3rd instar, 6-day assay) [%]	Obs. Mort. ([4]; Neonate 6 day) [%]	surv. ([4]; Neonate 6 day)	Obs. Mort. ([4]; Neonate 7 day) [%]	surv. ([4]; Neonate 7 day)	Mean Larval wgt ([4]; Neonate, 7-day assay) [mg]	also measured
CC(C)CCC[C@@H](C)[C@H]1CC[C@H]2[C@@H]3CCC4=CC(=O)CC[C@]4(C)[C@H]3CC[C@]12C [cholestenone, reference compound]	Nor do cholestenone or hydrogen peroxide, the products of enzymatic action on cholesterol, exhibit any lethal effects																				
OO [hydrogen peroxide, reference compound]	Nor do cholestenone or hydrogen peroxide, the products of enzymatic action on cholesterol, exhibit any lethal effects																				
CryIA(b): Bacillus thuringiensis crystal protein, purified; in Table 24 expressed in transgenic corn event ezra		0.96	97	4.3	90	10	69	0.25 ± 0.05	10	99	80	0	32	216	15	0	91	2	76	13.64	Mean Larval Weight ([2]; event collosian x ezra): 1.11 mg; Mort. ([2]; event collosian x ezra): 7%; Mean Larval Weight ([2]; event flushed x ezra): 1.27 mg; Mort. ([2]; event flushed x ezra): 8%; Stunting Observed ([4]; Neonate, 7-day assay): 7%
CryIA(c): Bacillus thuringiensis crystal protein, purified																					Obs. Mort. (H. zea neonate larvae; 7 day, CryIA(c) 15 ppm): 11%; surv. (H. zea neonate larvae; 7 day, CryIA(c) 15 ppm): 82; Obs. Mort. (H. zea neonate larvae; 10 day, CryIA(c) 15 ppm): 11%; surv. (H. zea neonate larvae; 10 day, CryIA(c) 15 ppm): 82; Mean Larval wgt [5]: 6.15 ± 0.90 mg; Stunting Observed [5]: 88%; Obs. Mort. ([5]; 7 day): 2%; surv. ([5]; 7 day): 94; Obs. Mort. ([5]; 8 day): 3%; surv. ([5]; 8 day): 70; Obs. Mort. [6, 10]: 38%; surv. [6, 10]: 56; Obs. Mort. [6, 11]: 23%; surv. [6, 11]: 70
catalase [reference compound]																					effect of added catalase on lethal effects of 3-hydroxysteroid oxidase on boll weevil (boll weevil larvae [1]; catalase added to 3-hydroxysteroid oxidase in the bioassay): does not block the lethal effects
cholesterol oxidase		24.95	27	0	95	1	87	42.97 ± 1.77	2	0	90	0	32	197	22	2	81	1	61	9.93	Bollweevils Survivors (boll weevil larvae [7]; 10 ppm in cotton leaf diet): 20; Bollweevils Survivors (boll weevil larvae [7]; 50 ppm in cotton leaf diet): 12; Bollweevils Survivors (boll weevil larvae [7]; 100 ppm in cotton leaf diet): 0; Obs. Mort. (H. zea neonate larvae; 7 day, CryIA(c) 15 ppm): 0%; surv. (H. zea neonate larvae; 7 day, CryIA(c) 15 ppm): 96; Obs. Mort. (H. zea neonate larvae; 10 day, CryIA(c) 15 ppm): 0%; surv. (H. zea neonate larvae; 10 day, CryIA(c) 15 ppm): 96; Mean Larval wgt [5]: 27.51 ± 5.52 mg; Stunting Observed [5]: 47%; Obs. Mort. ([5]; 7 day): 1%; surv. ([5]; 7 day): 94; Obs. Mort. ([5]; 8 day): 3%; surv. ([5]; 8 day): 77; Obs. Mort. [6, 10]: 1%; surv. [6, 10]: 90; Stunting Observed ([4]; Neonate, 7-day assay): 32%; midgut morphological changes ([8]; higher doses): complete lysis of the cells; midgut morphological changes ([8]; larvae ingesting low doses): Disruption of the epithelial cell layer; stunted (tobacco budworm larvae): 68%; lethal or stunting effects [9]: no lethal or stunting effects
